Reference: USRE47245E1, “Pro-angiogenic peptides and uses thereof” (Susavion Biosciences, Inc., priority 2006, dated 2019)
Where no end group is shown, it is not given here.

Columns and labels:
[1] = system: peripheral blood mononuclear cells (PBMCs); assay: Regulation of cytokine release: cytokine antibody array on medium of PBMC cultures; format: cell-based, human
Method: To determine whether the peptides regulate induction or inhibition of release of cytokines, cultured peripheral blood mononuclear cells (PBMCs) were treated with one peptide embodiment of the invention and, after 4 hour incubation, the medium was collected and assayed for changes in the amounts of 40 different cytokines. The peptide construct containing four copies of WNSTL (SEQ ID NO:1), illustrated in FIG. 2A, was added at a concentration of 100 nM in each of the assays. The PBMC cultures were established with cells from Cellular Technology, Ltd. (Shaker Heights, Ohio). Approximately 3 million cells of frozen human PBMCs were thawed at 37° C. and transferred to a 50 mL conical tube where 8 mL of wash medium were added slowly. Then an additional 8 mL were added and swirled to mix. The cells were then centrifuged at 330 g for 10 min, the supernatant was removed and the pellet was resuspended in 10 mL wash medium and centrifuged as above. The washed cells were then resuspended in RPMI 1640 medium containing 10% FBS to about 6 million cells per mL and 100 μL of the suspension were added into each well of a 96-well microtiter plate and incubated overnight at 37° C. in humidified 5% CO2. After 24 hr, the medium was replaced with 200 μL fresh RPMI 1640 medium containing 10% FBS and incubated at 37° C. in humidified 5% CO2 for 2 days. For the data shown in TABLE 1, an aliquot of the peptide construct was added to samples in duplicate at a final concentration of 5 nM or 100 nM and incubated at 37° C. in humidified 5% CO2 for 4 hr. For other experiments (data not included), the incubation was continued for 24 hr. The medium was then removed and stored at […]. The samples were analyzed for production of cytokines. One set of control cells was not treated with an experimental agent. A second set of control cells was treated with LPS, the agent commonly used to induce production of a variety of inflammatory cytokines.
Assays of cytokine levels in samples of culture media were performed using methods developed by RayBiotech, Inc. (Norcross, Ga.). In this technology, membrane arrays of antibodies against cytokines were incubated with samples of media. After washing, the array was incubated with a cocktail of all antibodies tagged with biotin. The membrane was then washed free of unbound antibodies and incubated with streptavidin labeled with a fluorescent dye. After a final wash, the membrane arrays were read in a fluorescence detector and the intensities of the spots quantitated to obtain relative values.
One set of control samples was not treated with peptide and a second set of control samples was treated with lipopolysaccharide (LPS) in the absence of the peptide construct. The structure of the construct is illustrated in FIG. 2A. […] The decrease in IL-8 concentration in the peptide-treated sample, as compared with the amount of IL-8 in the sample treated with the proto-typical inflammatory agent LPS, is particularly notable. […] The increase in the proangiogenic PDGF-BB and the decrease in the inflammatory IL-8, without concomitant stimulation of inflammation, are of particular importance with respect to wound healing. […]

[2] = system: 786-0 human renal cell adenocarcinoma cell line; assay: Pro-angiogenic activity: growth of xenograft tumor in nude mouse; format: in vivo, nude mouse (nu/nu)
Method: Tumors require vascularization to obtain nutrients to support growth. Therefore, stimulation of growth of a tumor in response to administration of a construct of this invention is an indication of angiogenesis. For this example, a xenograph model system with the nude mouse (nu/nu) was used to determine the effect of peptide on growth of 786-0 human renal cell adenocarcinoma cell line injected into the flank of a mouse so as to induce a tumor. After the tumor was established, peptide was injected subcutaneously on alternate days. The weight of the tumor was estimated by calculation of the volume.
FIG. 4 illustrates data resulting from assays for pro-angiogenic activity for one embodiment of the invention. […] The peptide was also assayed in combination with Sorafenib, an anti-angiogenic drug.

[3] = system: macrophages in PBMC cultures; assay: Stimulation of phagocytosis: macrophages engulfing microspheres opsonized with anti-HIV antibodies; format: cell-based, human; settings: PBMC cultures pretreated; control cultures 0 to 3 beads
Method: The activity of the peptides to stimulate phagocytosis was assessed by the ability of macrophages to engulf microspheres opsonized with anti-HIV antibodies. A biotin-tagged peptide epitope of a surface protein of HIV-1 was bound to streptavidin on the surface of the beads. An antibody preparation that was raised against this epitope was then bound to the HIV peptide. The beads were then washed and presented to PBMC cultures pretreated with peptides. Macrophages in cultures not treated with peptides had little, if any, phagocytic activity. In multiple control cultures, the number of beads within a macrophage-like cell ranged from 0 to 3. In the cultures treated with peptide constructs containing four copies of the peptide sequences WNSTL (SEQ ID NO:1), NQHTPR (SEQ ID NO:2), or VQATQS (SEQ ID NO:8), an average of 10 beads were counted in each phagocytic cell, with no substantial difference between peptide constructs.

[4] = PBMCs in serum, 4 hr, construct 100 nM

Compound	Relative concentration of Eotaxin [1, 4]	Relative concentration of Eotaxin-2 [1, 4]	Relative concentration of ICAM-1 [1, 4]	Relative concentration of IFN-γ [1, 4]	Relative concentration of IL-12p40 [1, 4]	Relative concentration of IL-12p70 [1, 4]	Relative concentration of IL-15 [1, 4]	Relative concentration of IL-17 [1, 4]	Relative concentration of IL-21 [1, 4]	Relative concentration of MCP-2 [1, 4]	Relative concentration of MIG [1, 4]	Relative concentration of PDGF-BB [1, 4]	Relative concentration of TIMP-2 [1, 4]	Relative concentration of TNF-β [1, 4]	average beads counted in each phagocytic cell [3]	other results
VSNQH: construct containing four copies of core sequence VSNQH (also: four copies of core sequence, branched construct)	47	470	70	170	52	117	137	21	130	97	94	82	285	93	–	Relative concentration of GM-CSF [1, 4]: 96; Relative concentration of IL-1α [1, 4]: 322; Relative concentration of IP-10 [1, 4]: 377; Relative concentration of TNF-α [1, 4]: 138
CNC(=O)c1cc(Oc2ccc(NC(=O)Nc3ccc(Cl)c(C(F)(F)F)c3)cc2)ccn1 [Sorafenib, reference compound]	–	–	–	–	–	–	–	–	–	–	–	–	–	–	–	effect on the peptide-enhanced tumor growth ([2]; in combination with the WNSTL construct): strongly (but not completely) inhibited
NQHTPR: branched construct: four copies of core sequence NQHTPR, each via GGGS linker on tri-lysine framework (also: tetramer: four copies each via GGGS linker on tri-lysine framework (branched))	57	310	–	–	45	65	146	14	200	90	100	–	110	84	10 beads	Relative concentration of IL-16 [1, 4]: 8; Relative concentration of M-CSF [1, 4]: 116; Relative concentration of MIP-1b [1, 4]: 777; Relative concentration of sTNF RII [1, 4]: 26
WNSTL: branched construct: four copies of core sequence WNSTL, each via GGGS linker on tri-lysine framework, C-terminal amide (also: four copies, each via GGGS linker on tri-lysine framework, C-terminal amide of construct)	–	109	44	103	228	131	–	–	–	–	–	159	25	–	10 beads	growth of the tumor enhanced over the control, factor ([2]; 0.05 nmole/gm subcutaneously on alternate days, tumor weight estimated from volume): 1.7; decrease in concentration of several cytokines as compared to untreated control samples ([1]; 4 hr): more than a two-fold decrease; Relative concentration of GCSF [1, 4]: 50; Relative concentration of IL-1β [1, 4]: 120; Relative concentration of IL-4 [1, 4]: 97; Relative concentration of IL-6sR [1, 4]: 32; Relative concentration of IL-7 [1, 4]: 93; Relative concentration of IL-8 [1, 4]: 144; Relative concentration of IL-10 [1, 4]: 43; Relative concentration of IL-11 [1, 4]: 49; Relative concentration of MCP-1 [1, 4]: 968; Relative concentration of RANTES [1, 4]: 145; Relative concentration of sTNF RI [1, 4]: 78; cytokines induced to higher concentrations: PDGF-BB, IL-1β, IL-4, IL-1, IL-12 and RANTES ([1]; compared to untreated controls, 4 hr): more than two-fold higher; relative IL-6 concentration ([1]; in one experiment, untreated control 98): 93
